Results reported in patent US6391871B1 (priority 1996, dated 2002).
Like-named read-outs stand apart in the source and are kept apart here.

Columns and labels:
cerebrocortical neurons = conditions: Olney et al 1989, Corso et al 1994; cited from earlier work
NMDA receptors = type: cell-based, chick
Procedure: Potency rating=minimum concentration required to provide total protection against neurotoxic effects of NMDA (40 μM) in chick embryo retinal tissue tests
These experiments were performed using segments of chick embryo retina. This is a widely used model for studying the production and prevention of excitotoxic phenomena, since it is a simple and inexpensive preparation, and since chick tissue provides a better model of adult mammalian neurons than embryonic or juvenile mammalian tissue. All of the glutamate receptors that mediate excitotoxic phenomena are present in chick retinas, and are sensitive to excitotoxic stimulation. By contrast, in embryonic or juvenile mammalian tissue, various glutamate receptors are not fully matured and are not responsive in the same ways that occur in adult mammalian tissue.
In these tests, NMDA is introduced into the incubation medium in a concentration ([…]) sufficient to produce a fully developed excitotoxic lesion within 30 min, displaying acute degeneration and necrosis of the majority of neurons in the inner layers of the retina. The control retinas are incubated with NMDA alone, and experimental retinas are incubated with NMDA plus a test compound that is being evaluated for NMDA antagonist properties. […] All agents that prevent NMDA from hyperactivating NMDA receptors and thereby inducing an excitotoxic neurodegenerative reaction in the chick embryo retina are considered appropriate candidate drugs for preventing NMDA receptor hyperactivation and NMDA receptor burnout in the presymptomatic stages of Alzheimer's disease.
The concentration of the test compound required to prevent NMDA from inducing neuronal degeneration in the chick retina tissue is considered a measure of its expected potency for preventing NMDA receptor hyperactivation and NMDA receptor burnout in the presymptomatic stages of Alzheimer's disease.

[1] = human anesthesia; cited from earlier work
vacuolated PC/RS neurons [2] = type: in vivo, rat; conditions: MK-801 ip
Procedure: To try to avoid that problem, a subsequent set of tests was carried out in which NBQX was microinjected directly into the PC/RS cortex, at one of two doses, either 0.025 or 0.25 nmols.

vacuolated PC/RS neurons [3] = type: in vivo, rat; conditions: NBQX 15 mg/kg ip every 30 minutes, 4 injections, with MK-801 0.5 mg/kg; 4 h; ± SEM
Excerpt: The rats were sacrificed four hours after the treatment began, and brain tissue from the PC/RS region was histologically evaluated, by previously described methods (Olney et al 1991) using double-blinded techniques. The number of vacuolated PC/RS neurons were counted on each side of the brain at a rostrocaudal level immediately posterior to where the corpus callosum ceases decussating across the midline (approximately 5.6 mm caudal to Bregma; see Paxinos & Watson, The Rat Brain in Stereotaxic Coordinates, 2nd ed., 1986).

[4] = tested on: pyramidal neurons in layers III and IV of the posterior cingulate and retrosplenial (PC/RS) cortices; assay: In vivo assay of toxic side effects of NMDA antagonists (vacuole formation in PC/RS cortex); conditions: adult female rats, ip, sacrificed four hours after treatment
[5] = tested on: neurons in neocortical and limbic brain regions; assay: Histopathology of rat brain after PCP/pilocarpine treatment; type: in vivo; conditions: PCP 50 mg/kg i.p. combined with pilocarpine 10 mg/kg i.p.
Procedure: Adult female rats were injected subcutaneously with an NMDA antagonist drug, phencyclidine (PCP), at 50 milligrams of drug per kilogram of body weight (mg/kg sc), accompanied by a small dose of a muscarinic agonist, pilocarpine (10 mg/kg sc). At various times (4, 16, 24, 48, 72 and 96 hours) after treatment, the rats were anesthetized and perfused with fixative to allow their brains to be prepared for histological evaluation.
Degenerating neurons in various brain regions were also examined by electron microscopy, to obtain evidence for loss of synaptic complexes, and a computer-assisted cell plotting system was used to plot the location and count the frequency with which degenerating neurons were found in each brain region.
Massive loss of neurons throughout many neocortical and limbic brain regions is a hallmark characteristic of Alzheimer's disease. To establish that the NR/hypo mechanism results not only in cell injury but in cell death, the Applicants systematically examined the brains of rats 4 days following PCP/pilocarpine treatment. Sections prepared at 1 millimeter intervals from one side of the brain were stained, using hematoxylin and eosin; sections prepared at 1 millimeter intervals from the other side of the brain were stained using a silver impregnation stain. […]

neurons in rat brain = assay: PCP alone (minipump infusion or single high dose), brain damage in rats; type: in vivo
Excerpt: Initially, the Applicants found it difficult to perform a detailed analysis of the full pattern and type of damage that can be induced in the adult rat brain by treatment with an NMDA antagonist because of technical problems that had to be overcome. Therefore, the Applicants tried several approaches. For example, it had been claimed (Ellison 1994) that when PCP is infused continuously in adult rats for five days, by a subcutaneously implanted minipump, it causes injury to nerve cells in several brain regions.
However, they found (Corso et al 1994) that even when a near lethal dose (50-80 mg/kg sc) was administered, a fully developed widespread pattern of damage could only be induced in a very small percentage of treated animals.

Row | Structure (SMILES) | pathological changes in cerebral cortex / corticolimbic regions of adult rats (cerebrocortical neurons) | POTENCY RATING = minimum concentration required to provide total protection against neurotoxic effects of NMDA (NMDA receptors) [µM] | duration of action [1] | reduction of vacuoles, protected (ipsilateral) side, lower dosage (vacuolated PC/RS neurons [2]; NBQX 0.025 nmols microinjected into PC/RS cortex) | reduction of vacuoles, protected (ipsilateral) side, higher dosage (vacuolated PC/RS neurons [2]; NBQX 0.25 nmols microinjected into PC/RS cortex) | POTENCY RATING = minimum concentration required to provide total protection against neurotoxic effects of NMDA (NMDA receptors; NMDA 40 μM, chick embryo retinal tissue) [µM] | vacuolated neurons in PC/RS cortex, MK-801 plus NBQX (vacuolated PC/RS neurons [3]) | neurotoxic (vacuole) reaction in PC/RS cortex, drug by itself [4] | NR/hypo-induced brain damage, PCP combined with pilocarpine [5] | rats with a full pattern of damage out of 40 rats treated (neurons in rat brain; PCP 50 mg/kg i.p., single dose) | neuronal damage after continuous infusion by subcutaneous minipump (neurons in rat brain; adult rats, five days, same dose as Ellison 1994) | near lethal dose (neurons in rat brain; rats)
1 | CNC1(c2ccccc2Cl)CCCCC1=O (centres unmarked) [Ketamine] | cause pathological changes in the cerebral cortex of adult rats | 10 | about 15 minutes |  |  |  |  |  |  |  |  | 
2 | NS(=O)(=O)c1cccc2c1c([N+](=O)[O-])cc1nc(O)c(O)nc12 [NBQX] |  |  |  | about 20% | about 80% | 100 | 52±22.4 vacuolated neurons per microscopic section | did not cause vacuoles |  |  |  | 
3 | c1ccc(C2(N3CCCCC3)CCCCC2)cc1 [Phencyclidine] | produce pathological changes in various corticolimbic regions of the adult rat brain | 1 |  |  |  |  |  |  | reliably and consistently produced severe levels of NR/hypo-induced damage | 1 | produced no neuronal damage at all | 50-80 mg/kg sc
